The results in this text go back to US20240300980A1, “HETEROCYCLIC COMPOUNDS AS KRAS INHIBITOR, AND PREPARATION THEREFOR AND USE THEREOF IN TREATMENT” (SHANGHAI KECHOW PHARMA, INC., priority 2021, published 2024).

Structures are written as SMILES.

The first test has as its system AGS cells (KRAS^G12D). Nature of the test: Detection of cell proliferation in vitro by MTT/MTS method (cell activity experiment). The class given is cell-based. The note with it: AGS cells; MTT/MTS; 3 days of drug treatment; read-out: AGS IC50. Put shortly:
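KRAS G12D AGS cells seeded at 1000 per well, compound added 24 h later, 0.5% final DMSO. Viability read after 3 days of treatment by MTT (solubilised in DMSO) or MTS, 4 h, absorbance 490 nm. IC50 from dose–response curves versus DMSO control.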
Regarding `C#Cc1c(F)ccc2cc(O)cc(-c3ccc4c(N5CCC(N)C5)nc(OC[C@@]56CCCN5C[C@H](F)C6)nc4c3F)c12` (stereo partly drawn) [Example 116, 4-(4-(3-aminopyrrolidin-1-yl)-8-fluoro-2-(((2R, 7aS)-2-fluorotetrahydro-1H-pyrrolizin-7a(5H)-yl)methoxy)quinazolin-7-yl)-5-ethynyl-6-fluoronaphthalen-2-ol], the IC50 was over 2500 nM.

Take `Oc1cc2c(c(-c3ncc4c(N5C[C@H]6CC[C@@H](C5)N6)nc(OC[C@@]56CCCN5C[C@H](F)C6)nc4c3F)c1)CCCC2` [Example 419, 4-(4-((1R,5S)-3,8-diazabicyclo[3.2.1]octan-3-yl)-8-fluoro-2-(((2R,7aS)-2-fluorotetrahydro-1H-pyrrolizin-7a(5H)-yl)methoxy)pyrido[4,3-d]pyrimidin-7-yl)-5,6,7,8-tetrahydronaphthalen-2-ol]: the IC50 stood at 14 nM.

The test is the same for the next values; noted with them: Homo sapiens, AGS, 72 h, AGS cells; MTT/MTS; 3 days of drug treatment; read-out: AGS IC50.
Take `C#Cc1c(F)ccc2cccc(-c3ccc4c(N5C[C@H]6CC[C@@H](C5)N6)nc(OC[C@]56CCCN5[C@@H](COC(=O)N(C)C)CC6)nc4n3)c12` [Example 147, ((3R,7aR)-7a-(((4-((1R, 5S)-3,8-diazabicyclo [3.2.1]octan-3-yl)-7-(8-ethynyl-7-fluoronaphthalen-1-yl)pyrido[2,3-d]pyrimidin-2-yl)oxy)methyl)hexahydro-1H-pyrrolizin-3-yl)methyl dimethylcarbamate]: the IC50 was over 2500 nM.

As for `C#Cc1c(F)ccc2cc(O)cc(-c3ncc4c(N5CC6CCC(C5)C6S(C)(=O)=O)nc(OC[C@@]56CCCN5C[C@H](F)C6)nc4c3F)c12` (stereo partly drawn) [Example 66, 5-ethynyl-6-fluoro-4-(8-fluoro-2-(((2R,7aS)-2-fluorotetrahydro-1H-pyrrolizin-7a(5H)-yl)methoxy)-4-((1R,5S, 8R)-8-(methylsulfonyl)-3-azabicyclo[3.2.1]octan-3-yl)pyrido[4,3-d]pyrimidin-7-yl) naphthalen-2-ol], the IC50 was over 10000 nM.

With `C#Cc1c(F)ccc2cccc(-c3ccc4c(N5C[C@H]6CC[C@@H](C5)N6)nc(OC[C@]56CCCN5[C@@H](COC(=O)N(C)C)CC6)nc4c3F)c12` [Example 98, ((3R,7aR)-7a-(((4-((1R,5S)-3,8-diazabicyclo[3.2.1]octan-3-yl)-7-(8-ethynyl-7-fluoronaphthalen-1-yl)-8-fluoroquinazolin-2-yl)oxy)methyl)hexahydro-1H-pyrrolizin-3-yl) methyl dimethylcarbamate], the IC50 was 129 nM.

With `CCC1CCc2cc(O)cc(-c3c4c(c5c(N6C[C@H]7CC[C@@H](C6)N7)nc(OC[C@@]67CCCN6C[C@H](F)C7)nc5c3F)OCO4)c21` (stereo partly drawn) [Example 394, 7-(9-((1R,5S)-3,8-diazabicyclo[3.2.1]octan-3-yl)-5-fluoro-7-(((2R,7aS)-2-fluorotetrahydro-1H-pyrrolizin-7a(5H)-yl)methoxy)-[1,3]dioxolo[4,5-f]quinazolin-4-yl)-1-ethyl-2,3-dihydro-1H-inden-5-ol], the IC50 was found to be 75 nM.

Consider `CCc1cccc2cc(O)cc(-c3ncc4c(N5C[C@H]6CC[C@@H](C5)S6)nc(OC[C@@]56CCCN5C[C@H](F)C6)nc4c3F)c12` [Example 25, 4-(4-((1R,5S)-8-thia-3-azabicyclo[3.2.1]octan-3-yl)-8-fluoro-2-(((2R, 7aS)-2-fluorotetrahydro-1H-pyrrolizin-7a(5H)-yl)methoxy)pyrido[4,3-d]pyrimidin-7-yl)-5-ethylnaphthalen-2-ol], for which the IC50 was 290 nM.

As to `C#Cc1cccc2cc(O)cc(-c3ncc4c(N5CCC6(CCCN6)CC5)nc(OC[C@@]56CCCN5C[C@H](F)C6)nc4c3F)c12` [Example 48, 5-ethynyl-4-(8-fluoro-2-(((2R,7aS)-2-fluorotetrahydro-1H-pyrrolizin-7a(5H)-yl)methoxy)-4-(1,8-diazaspiro[4.5]decan-8-yl)pyrido[4,3-d]pyrimidin-7-yl) naphthalen-2-ol], the half-maximal inhibitory concentration (IC50) came to 5160 nM.

For the compound `CC[C@H]1CCc2cc(O)cc(-c3ncc4c(N5CC6CCC(C5)N6)nc(OC[C@@]56CCCN5C[C@H](F)C6)nc4c3F)c21` (single isomer, unassigned) [Example 222, (S)-7-(4-((1R,5S)-3,8-diazabicyclo[3.2.1]octan-3-yl)-8-fluoro-2-(((2R,7aS)-2-fluorotetrahydro-1H-pyrrolizin-7a(5H)-yl)methoxy)pyrido[4,3-d]pyrimidin-7-yl)-1-ethyl-2,3-dihydro-1H-inden-5-ol or (R)-7-(4-((1R,5S)-3,8-diazabicyclo[3.2.1]octan-3-yl)-8-fluoro-2-(((2R,7aS)-2-fluorotetrahydro-1H-pyrrolizin-7a(5H)-yl)methoxy)pyrido[4,3-d]pyrimidin-7-yl)-1-ethyl-2,3-dihydro-1H-inden-5-ol], the IC50 came out at 2.5 nM.

For the compound `CCc1ccc2cc(O)cc(-c3c4c(c5c(N6C[C@H]7CC[C@@H](C6)N7)nc(OC[C@@]67CCCN6C[C@H](F)C7)nc5c3F)OCO4)n12` [Example 397, 5-(9-((1R,5S)-3,8-diazabicyclo[3.2.1]octan-3-yl)-5-fluoro-7-(((2R,7aS)-2-fluorotetrahydro-1H-pyrrolizin-7a(5H)-yl)methoxy)-[1,3]dioxolo[4,5-f]quinazolin-4-yl)-3-ethylindolizin-7-ol], the IC50 was determined as 70 nM.

Consider `CC1CCCc2cc(O)cc(-c3cc4nc(OC[C@@]56CCCN5C[C@H](F)C6)nc(N5C[C@H]6CC[C@@H](C5)N6)c4c4occc34)c21` (stereo partly drawn) [Example 387, 4-(9-((1R,5S)-3,8-diazabicyclo[3.2.1]octan-3-yl)-7-(((2R,7aS)-2-fluorotetrahydro-1H-pyrrolizin-7a(5H)-yl)methoxy)furo[2,3-f]quinazolin-4-yl)-5-methyl-5,6,7,8-tetrahydronaphthalen-2-ol], for which the IC50 was 481 nM.

`N#Cc1c(OC[C@@]23CCCN2C[C@H](F)C3)nc2c(F)c(-c3cc(O)cc4ccc(F)c(F)c34)ccc2c1N1C[C@H]2CC[C@@H](C1)N2` [Example 179, 4-((1R,5S)-3,8-diazabicyclo[3.2.1]octan-3-yl)-7-(7,8-difluoro-3-hydroxynaphthalen-1-yl)-8-fluoro-2-(((2R,7aS)-2-fluorotetrahydro-1H-pyrrolizin-7a(5H)-yl)methoxy)quinoline-3-carbonitrile]: the IC50 stood at 550 nM.

`CC(C)C1CCc2cc(O)cc(-c3ncc4c(N5C[C@H]6CC[C@@H](C5)N6)nc(OC[C@@]56CCCN5C[C@H](F)C6)nc4c3F)c21` (stereo partly drawn) [Example 268, 7-(4-((1R,5S)-3,8-diazabicyclo[3.2.1]octan-3-yl)-8-fluoro-2-(((2R,7aS)-2-fluorotetrahydro-1H-pyrrolizin-7a(5H)-yl)methoxy)pyrido[4,3-d]pyrimidin-7-yl)-1-isopropyl-2,3-dihydro-1H-inden-5-ol]: the IC50 came out at 4000 nM.

For `CCc1c(F)ccc2cc(O)cc(-c3ccc4c(N5C[C@H]6CC[C@@H](C5)S6(=O)=O)nc(OC[C@@]56CCCN5C[C@H](F)C6)nc4c3F)c12` [Example 163, (1R,5S)-3-(7-(8-ethyl-7-fluoro-3-hydroxynaphthalen-1-yl)-8-fluoro-2-(((2R,7aS)-2-fluorotetrahydro-1H-pyrrolizin-7a(5H)-yl)methoxy)quinazolin-4-yl)-8-thia-3-azabicyclo[3.2.1]octane 8,8-dioxide], the IC50 was over 2500 nM.

Consider `Nc1cc(-c2ncc3c(N4C[C@H]5CC[C@@H](C4)N5)nc(OC[C@@]45CCCN4C[C@H](F)C5)nc3c2F)c2ccccc2c1` [Example 42, 4-(4-((1R,5S)-3,8-diazabicyclo[3.2.1]octan-3-yl)-8-fluoro-2-(((2R,7aS)-2-fluorotetrahydro-1H-pyrrolizin-7a(5H)-yl)methoxy)pyrido[4,3-d]pyrimidin-7-yl) naphthalen-2-amine], for which the IC50 is 109 nM.

Consider `Oc1cc(-c2c(Cl)cc3c(N4C[C@H]5CC[C@@H](C4)N5)nc(OC[C@@]45CCCN4C[C@H](F)C5)nc3c2OC2CC2)c2ccccc2c1` [Example 329, 4-(4-((1R,5S)-3,8-diazabicyclo[3.2.1]octan-3-yl)-6-chloro-8-cyclopropoxy-2-(((2R,7aS)-2-fluorotetrahydro-1H-pyrrolizin-7a(5H)-yl)methoxy)quinazolin-7-yl)naphthalen-2-ol], for which the IC50 was determined as 260 nM.

For the compound `CCC1CCc2cc(O)cc(-c3c(Cl)cc4c(N5C[C@H]6CC[C@@H](C5)N6)nc(OC[C@@]56CCCN5C[C@H](F)C6)nc4c3F)c21` (stereo partly drawn) [Example 302, 7-(4-((1R,5S)-3,8-diazabicyclo[3.2.1]octan-3-yl)-6-chloro-8-fluoro-2-(((2R,7aS)-2-fluorotetrahydro-1H-pyrrolizin-7a(5H)-yl)methoxy)quinazolin-7-yl)-1-ethyl-2,3-dihydro-1H-inden-5-ol], the IC50 is 22 nM.
